This passage reports MIC and Activity results from ChEMBL document CHEMBL6078656, “Pattern-Based Genome Mining Guides Discovery of the Antibiotic Indanopyrrole A from a Marine Streptomycete” (J Nat Prod, 2024).

In one series the test system is Staphylococcus aureus. The experiment in a line: Antibacterial activity against Staphylococcus aureus TCH1516 assessed as inhibition of bacterial growth incubated for 24 hrs by CLSI based broth microdilution method. The class given is functional. For orientation: In broth dilution the organism is exposed to a series of concentrations in liquid medium.
The next series concerns Streptococcus. The experiment in a line: Antibacterial activity against Streptococcus M1T1 assessed as inhibition of bacterial growth incubated for 24 hrs by CLSI based broth microdilution method. The class given is functional.
For another series, the system named is Enterococcus faecium. The experiment in a line: Antibacterial activity against vancomycin-resistant Enterococcus faecium DAPS assessed as inhibition of bacterial growth incubated for 24 hrs by CLSI based broth microdilution method. The class given is functional.
Series [1] relates to Escherichia coli. The series can be described thus: Antibacterial activity against Escherichia coli K1 RS218 assessed as inhibition of bacterial growth incubated for 24 hrs by CLSI based broth microdilution method. The series is classed as functional.
For series [2], the system named is Staphylococcus epidermidis. The experiment in a line: Antibacterial activity against methicillin-resistant Staphylococcus epidermidis assessed as inhibition of bacterial growth incubated for 24 hrs by CLSI based broth microdilution method. The class given is functional.
Series [3] deals with Haemophilus influenzae. The experiment in a line: Antibacterial activity against Haemophilus influenzae 1 assessed as inhibition of bacterial growth incubated for 24 hrs by CLSI based broth microdilution method. The class given is functional.
For series [4], the system named is Haemophilus influenzae. The experiment in a line: Antibacterial activity against Haemophilus influenzae 2 assessed as inhibition of bacterial growth incubated for 24 hrs by CLSI based broth microdilution method. The series is classed as functional.
Series [5] deals with Escherichia coli. The experiment in a line: Antibacterial activity against Escherichia coli LptD4213 assessed as inhibition of bacterial growth incubated for 18 hrs by broth microdilution method. The series is classed as functional.
In a further series the test system is Acinetobacter baumannii. The experiment in a line: Antibacterial activity against Acinetobacter baumannii 5075 assessed as inhibition of bacterial growth incubated for 24 hrs by CLSI based broth microdilution method. The class given is functional.
The test system of the next series is A549. The experiment in a line: Cytotoxicity against human A549 cells assessed as increase in LDH release at 16 microg/ml incubated for 24 hrs. The series is classed as toxicity, cell-based. The note with it: a549, 24 h, dose 16 µg/ml.

Values after ≈ are worked out from the molar mass of the structure shown. Some results are limits rather than exact numbers.

As to `C/C(=C\[C@H]1C=C[C@H]2CC[C@@H](C)[C@@H]2[C@H]1C(=O)c1cc(Cl)c(Cl)[nH]1)C[C@@H](C)C(=O)O`, the MIC in the series on Staphylococcus aureus, with Streptococcus, in the series on Enterococcus faecium and in the series with Escherichia coli [1] was over 16 µg/mL throughout.
For the compound `C/C(=C\[C@H]1C=C[C@H]2CC[C@@H](C)[C@@H]2[C@H]1C(=O)c1[nH]c(Cl)c(Cl)c1Cl)C[C@@H](C)C(=O)O`, the MIC turned out to be 2 µg/mL (≈ 4.36 µM) in the series on Staphylococcus aureus; 4 µg/mL (≈ 8.72 µM) in the series with Streptococcus; 4 µg/mL (≈ 8.72 µM) in the series on Enterococcus faecium; 4 µg/mL (≈ 8.72 µM) in series [2]; 1 µg/mL (≈ 2.18 µM) in the series with Haemophilus influenzae [3]; 2 µg/mL (≈ 4.36 µM) with Haemophilus influenzae [4]. Besides, the MIC in the series on Escherichia coli [5] is 4 µg/mL (≈ 8.72 µM); in the series on Escherichia coli [1], over 32 µg/mL; with Acinetobacter baumannii it was over 32 µg/mL. Further, the Activity result with A549 is recorded as “Toxic”.
